From patent US5481021A, “Phenyl amidines derivatives useful as platelet aggregation inhibitors” (G. D. Searle & Co., priority 1994, dated 1996)

Tests used:
[1] = tested on: Platelet aggregation in dog PRP; experiment: In-Vitro Platelet Aggregation in PRP (ADP induced); assay type: cell-based; details: Canis lupus familiaris; for IC50: ADP 50 μm, 37° C.; for inhibition at 10 µM: ADP, test concentration 1 × 10^-5
Experimental: In-Vitro Platelet Aggregation in PRP
(§1) Healthy male or female dogs were fasted for 8 hours prior to drawing blood; then 30 ml whole blood was collected using a butterfly needle and 30 cc plastic syringe with 3 ml of 0.129M buffered sodium citrate (3.8%). The syringe was rotated carefully as blood was drawn to mix the citrate. Platelet-rich plasma (PRP) was prepared by centrifugation at 975×g for 3.17 minutes at room temperature, allowing the centrifuge to coast to a stop without braking. The PRP was removed from the blood with a plastic pipette and placed in a plastic capped, 50 ml Corning conical sterile centrifuge tube which was held at room temperature. Platelet poor plasma (PPP) was prepared by centrifuging the remaining blood at 2000×g for 15 minutes at room temperature allowing the centrifuge to coast to a stop without braking. The PRP was adjusted with PPP to a count of 2-3×10^8 platelets per ml. 400 for 5-(p-cyanophenyl)pentanoic acid in Section C of Example 1.
as §1, with “400 μl of the PRP preparation and 50 μl of the compound to be tested or saline were preincubated” for “400”, “1 minute at 37° C.” for “5-(p-cyanophenyl)pentanoic acid”, “a BioData aggregometer (BioData, Horsham, Pa.). 50 μl” for “Section C”, “adenosine 5'diphosphate (ADP) (50 μm final concentration) was added to the cuvettes and the aggregation was monitored for 1 minute. All compounds are tested in duplicate. Results are calculated as follows:” for “Example 1.”
Percent of control=[(maximal OD minus initial OD of compound) divided by
(maximal OD minus initial OD of control saline)]×100. The %
inhibition=100-(percent of control).

[2] = target: T1, fibrinogen binding to platelets (gpIIb/IIIa) (Homo sapiens, UniProt P05106+P08514); experiment: Fibrinogen Binding Assay (125I-fibrinogen binding to ADP-activated platelets); details: ADP 10 μM, 125I-fibrinogen 0.3 μM, 40 min at 37° C., read-out: Human Fg binding IC50
T1 construct: endogenous in cells
Experimental: Fibrinogen binding was performed essentially as described by Plow et al., Blood 70, 110-115 (1987). Briefly, blood from humans who had not been given any antiplatelet drugs in the previous two weeks was collected into 1/10th volume of CCD buffer (100 mM sodium citrates, 136 mM glucose, pH 6.5). The blood was centrifuged for 3 min at 1000×g and platelet rich plasma was transferred to a plastic tube with a plastic pipet and placed on ice. After 15 minutes, 1/2 volume of ice cold CCD buffer was added and the sample was centrifuged at 900×g for 10 min at 2° C. The supernatant was decanted and the platelet pellet was gently resuspended in 1/2 the original volume of ice cold modified Tyrode's buffer (137 mM NaCl, 2.6 mM KCl, 12 mM NaHCO3, 5.5 mM glucose, 15 mM HEPES, 0.5% BSA, pH 7.4). After incubating for 30 minutes at 37° C., the platelet count was adjusted to 4×10^8 platelets/ml with modified Tyrode's buffer. To test samples (final concentration=1×10^8 platelets/ml) were added in sequence: ADP (10 μM), CaCl2 (2 mM), test compound, and ^125 I-fibrinogen (0.3 μM) to the aforesaid final concentrations in a volume of 200 μl. The samples were incubated for 40 min at 37° C. and 50 μl aliquots were centrifuged at 8,000×g through a 20% sucrose solution (400 μl). The tubes were quick frozen and the tips containing the platelet pellet were cut and assayed for bound ^125 I-fibrinogen by gamma scintillation counting. Specific binding was determined in each test by subtracting from the total binding the amount of ^125 I-fibrinogen bound in the presence of a 60-fold excess of unlabeled fibrinogen.

[3] = tested on: ex vivo collagen induced platelet aggregation; experiment: Inhibition of ex vivo collagen induced aggregation; assay type: in vivo, dog (Beagle); details: dog
Experimental: INHIBITION OF EX VIVO COLLAGEN INDUCED AGGREGATION BY COMPOUNDS OF THE INVENTION
PURPOSE--The purpose of this assay is to determine the effects of antiplatelet compounds on ex vivo collagen induced platelet aggregation when administered either intravenously or orally to dogs.
Pretreatment (control) blood samples are drawn from either conscious or anesthetized dogs (Beagles) and centrifuged to prepare platelet rich plasma (PRP). Aggregatory response to collagen is measured in an aggregometer and used as Control. Compounds are administered, either intragasterically (either by capsule or stomach tube or intravenously. Blood samples are drawn at predetermined intervals after compound administration, PRP prepared and aggregation to collagen determined. Compound inhibition of aggregation is determined by comparing the aggregation response after compound administration to the pretreatment response. The study is continued for a maximum of 24 hours or until the platelet aggregation returns to control levels. (If aggregation is still inhibited after 7 hours, a blood sample is drawn the following morning and tested.) Duration of activity is determined by the length of time platelet aggregation is inhibited after compound administration.

T1 sequence (P08514 32-887 limits assumed): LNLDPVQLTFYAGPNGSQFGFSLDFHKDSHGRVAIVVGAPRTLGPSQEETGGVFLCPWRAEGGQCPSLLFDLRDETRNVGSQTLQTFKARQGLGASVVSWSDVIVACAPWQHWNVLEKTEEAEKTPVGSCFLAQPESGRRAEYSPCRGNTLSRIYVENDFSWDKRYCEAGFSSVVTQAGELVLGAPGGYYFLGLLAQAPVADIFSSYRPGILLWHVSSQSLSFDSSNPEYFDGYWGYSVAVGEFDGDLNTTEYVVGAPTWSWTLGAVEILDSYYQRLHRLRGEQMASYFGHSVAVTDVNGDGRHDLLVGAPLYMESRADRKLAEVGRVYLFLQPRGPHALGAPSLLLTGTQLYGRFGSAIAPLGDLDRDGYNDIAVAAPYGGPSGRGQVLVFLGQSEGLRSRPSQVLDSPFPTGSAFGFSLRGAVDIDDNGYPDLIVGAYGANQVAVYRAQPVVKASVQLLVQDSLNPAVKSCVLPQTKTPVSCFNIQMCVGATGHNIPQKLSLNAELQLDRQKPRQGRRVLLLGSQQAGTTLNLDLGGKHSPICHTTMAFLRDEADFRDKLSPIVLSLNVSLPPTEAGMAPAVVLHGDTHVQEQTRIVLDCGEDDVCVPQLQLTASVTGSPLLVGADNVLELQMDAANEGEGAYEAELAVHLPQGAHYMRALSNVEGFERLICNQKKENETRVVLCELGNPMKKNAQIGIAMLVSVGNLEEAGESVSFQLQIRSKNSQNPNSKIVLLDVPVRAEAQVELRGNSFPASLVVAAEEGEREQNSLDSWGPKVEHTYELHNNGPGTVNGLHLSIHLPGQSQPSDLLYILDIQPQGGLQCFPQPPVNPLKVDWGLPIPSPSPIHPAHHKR
T1 sequence (P08514 891-1039 partner limits assumed): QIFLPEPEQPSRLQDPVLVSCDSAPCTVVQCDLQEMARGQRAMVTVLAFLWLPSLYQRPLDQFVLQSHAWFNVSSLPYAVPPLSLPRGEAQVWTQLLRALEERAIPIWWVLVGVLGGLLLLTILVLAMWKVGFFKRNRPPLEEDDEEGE
T1 sequence (P05106 27-788): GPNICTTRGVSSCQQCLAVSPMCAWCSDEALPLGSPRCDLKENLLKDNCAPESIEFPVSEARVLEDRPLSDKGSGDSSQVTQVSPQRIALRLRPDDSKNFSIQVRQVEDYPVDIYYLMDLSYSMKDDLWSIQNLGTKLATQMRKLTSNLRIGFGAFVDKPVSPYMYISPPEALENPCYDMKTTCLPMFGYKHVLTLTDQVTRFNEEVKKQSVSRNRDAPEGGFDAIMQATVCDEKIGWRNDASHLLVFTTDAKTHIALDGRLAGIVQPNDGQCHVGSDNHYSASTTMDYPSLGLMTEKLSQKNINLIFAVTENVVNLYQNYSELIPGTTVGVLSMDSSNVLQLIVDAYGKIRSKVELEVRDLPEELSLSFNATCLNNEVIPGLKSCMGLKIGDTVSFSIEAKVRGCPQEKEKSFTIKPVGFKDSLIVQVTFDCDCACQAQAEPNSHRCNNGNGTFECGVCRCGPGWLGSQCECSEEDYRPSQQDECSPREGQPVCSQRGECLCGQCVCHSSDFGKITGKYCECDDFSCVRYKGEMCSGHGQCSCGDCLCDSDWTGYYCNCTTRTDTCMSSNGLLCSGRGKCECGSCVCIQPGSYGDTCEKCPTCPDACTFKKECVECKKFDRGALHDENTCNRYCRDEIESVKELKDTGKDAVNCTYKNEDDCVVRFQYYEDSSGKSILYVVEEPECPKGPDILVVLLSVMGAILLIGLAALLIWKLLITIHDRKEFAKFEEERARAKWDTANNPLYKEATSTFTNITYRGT

| Compound | IC50 [1] [nM] | inhibition at 10 µM [1] [%] | IC50 [2] [nM] | Ex-vivo collagen induced aggregation, Max % Inhibition ([3]; 0.1 mg/kg, IV) [%] | Ex-vivo collagen induced aggregation, Max % Inhibition ([3]; .025 mg/kg, IG) [%] |
| --- | --- | --- | --- | --- | --- |
| N=C(N)c1ccc(CCCCC(=O)N[C@@H](CC(=O)O)C(=O)NCCc2c[nH]c3ccccc23)cc1 [3S-[[5-[4-(aminoiminomethyl)phenyl]-1-oxopentyl]amino]-4-[[2-(1H-indol-3-yl)ethyl]amino]-4-oxobutanoic acid] | 280 | 100 | – | – | – |
| N=C(N)c1ccc(CCCCC(=O)N[C@@H](CC(=O)O)C(=O)N(CCC(=O)O)Cc2ccccc2)cc1 [3S-[[5-[4-(aminoiminomethyl)phenyl]-1-oxopentyl]amino]-4-[(2-carboxyethyl)(phenylmethyl)amino]-4-oxobutanoic acid] | 4300 | 100 | – | – | – |
| N=C(N)c1ccc(/C=C/CCC(=O)N[C@@H](CC(=O)O)C(=O)N[C@@H](Cc2ccccc2)C(=O)O)cc1 [N-[5-[4-(aminoiminomethyl)phenyl]-1-oxo-4E-pentenyl]-N-L-α-aspartyl-L-phenylalanine] | 82 | 100 | 7 | – | – |
| COc1ccc(CCNC(=O)[C@H](CC(=O)O)NC(=O)CCCCc2ccc(C(=N)N)cc2)cc1 [3S [[5-[4-(aminoiminomethyl)phenyl]-1-oxopentyl]amino]-4-[[2-4-(methoxyphenyl)ethyl]amino]-4-oxobutanoic acid] | 420 | 100 | – | – | – |
| N=C(N)c1cccc(/C=C\CCCC(=O)N[C@@H](CC(=O)O)C(=O)N[C@@H](Cc2ccccc2)C(=O)O)c1 [N-[N-[6-[3-(aminoiminomethyl)phenyl]-1-oxo-5Z-hexenyl]-L-α-aspartyl]-L-phenylalanine] | 4300 | 100 | 600 | – | – |
| N=C(N)c1ccc(CCCCC(=O)N[C@@H](CC(=O)O)C(=O)N(CCC(=O)O)CCc2ccccc2)cc1 [3S-[[5-[4-(Aminoiminomethyl)phenyl]-1-oxopentyl]amino]-4-[(2-carboxyethyl)(2-phenylethyl)amino]-4-oxobutanoic acid] | 10000 | 53 | – | – | – |
| N=C(N)c1ccc(CC(=O)CCC(=O)N[C@@H](CC(=O)O)C(=O)N[C@@H](Cc2ccccc2)C(=O)O)cc1 [N-[N-[5-[4-(aminoiminomethyl)phenyl]-1,4-dioxopentyl]-L-α-aspartyl]-L-phenylalanine] | 180 | 100 | – | – | – |
| COC(=O)C[C@H](NC(=O)CCCCc1ccc(C(=N)N)cc1)C(=O)N[C@@H](Cc1ccccc1)C(=O)OC [N-[5-[4-(aminoiminomethyl)phenyl]-1-oxopentyl]-N-L-α-aspartyl-L-phenylalanine, dimethyl ester] | 400 | 100 | – | – | – |
| N=C(N)c1ccc(/C=C\CCC(=O)N[C@@H](CC(=O)O)C(=O)N[C@@H](Cc2ccccc2)C(=O)O)cc1 [N-[N-[5-[4-(aminoiminomethyl)phenyl]-1-oxo-4Z-pentenyl]-L-α-aspartyl]-L-phenylalanine] | 600 | 100 | – | – | – |
| N=C(N)c1cccc(CCCCC(=O)N[C@@H](CC(=O)O)C(=O)N[C@@H](Cc2ccccc2)C(=O)O)c1 [N-[N-[5-[3-(aminoiminomethyl)phenyl-1-oxopentyl]-L-α-aspartyl]-L-phenylalanine] | – | 25 | – | – | – |
| N=C(N)c1ccc2cc(CCC(=O)N[C@@H](CC(=O)O)C(=O)N[C@@H](Cc3ccccc3)C(=O)O)ccc2c1 [N-[N-[3-[6-(aminoiminomethyl)-2-naphthalenyl]-1-oxopropyl]-L-α-aspartyl]-L-phenylalanine] | 5500 | 100 | – | – | – |
| CC(C)[C@H](NC(=O)[C@H](CC(=O)O)NC(=O)CCCCc1ccc(C(=N)N)cc1)C(=O)O [N-[5-[4-(aminoiminomethyl)phenyl]-1-oxopentyl]-N-L-α-aspartyl-L-valine] | 130 | 100 | – | – | – |
| N=C(N)c1ccc2cc(OCC(=O)N[C@@H](CC(=O)O)C(=O)N[C@@H](Cc3ccccc3)C(=O)O)ccc2c1 [N-[N-[2-[[6-(aminoiminomethyl)-2-naphthalenyl]oxy]-1-oxoethyl]-L-α-aspartyl]-L-phenylalanine] | 1100 | 100 | – | – | – |
| CN(CC(=O)N[C@@H](CC(=O)O)C(=O)N[C@@H](Cc1ccccc1)C(=O)O)C(=O)CCc1ccc(C(=N)N)cc1 [N-[N-[2-[[3-[4-(aminoiminomethyl)phenyl]-1-oxopropyl]methylamino] -1-oxoethyl]-L-α-aspartyl]-L-phenylalanine] | 700 | 100 | – | – | – |
| CC(C)CN(CCC(=O)O)C(=O)[C@H](CC(=O)O)NC(=O)CCCCc1ccc(C(=N)N)cc1 [3S-[[5-[4-(aminoiminomethyl)phenyl]-1-oxopentyl]amino]-4-[(2-carboxyethyl)(2-methylpropyl)amino]-4-oxobutanoic acid] | – | 14 | – | – | – |
| N=C(N)c1ccc(CCCC(=O)N[C@@H](CC(=O)O)C(=O)N[C@@H](Cc2ccccc2)C(=O)O)cc1 [N-[N-[4-[4-(aminoiminomethyl)phenyl]-1-oxobutyl]-L-α-aspartyl]-L-phenylalanine] | – | 4 | – | – | – |
| N=C(N)c1ccc(CC(O)CCC(=O)N[C@@H](CC(=O)O)C(=O)N[C@@H](Cc2ccccc2)C(=O)O)cc1 (stereo partly drawn) [N-[N-[5-[4-(aminoiminomethyl)phenyl]-4-hydroxy-1-oxopentyl]-L-α-aspartyl]-L-phenylalanine] | – | 15 | – | – | – |
| CC(C)CNC(=O)[C@H](CC(=O)O)NC(=O)CCCCc1ccc(C(=N)N)cc1 [3S-[[5-[4-(aminoiminomethyl)phenyl]-1-oxopentyl]amino]-4-[(2-methylpropyl)amino]-4-oxobutanoic acid] | 700 | 100 | – | 100 | – |
| CCOC(=O)C[C@H](NC(=O)CCCCc1ccc(C(=N)N)cc1)C(=O)N[C@@H](Cc1ccccc1)C(=O)OCC [N-[N-[5-[4-(aminoiminomethyl)phenyl]-1-oxopentyl]-L-α-aspartyl]-L-phenylalanine, diethyl ester] | – | – | – | – | 39 |
| COc1ccc(CCN(CCC(=O)O)C(=O)[C@H](CC(=O)O)NC(=O)CCCCc2ccc(C(=N)N)cc2)cc1 [3S-[[5-[4-(aminoiminomethyl)phenyl]-1-oxopentyl)amino]-4-[(2-carboxyethyl)(2-(4-methoxyphenyl)ethyl]amino]-4-oxobutanoic acid] | – | 66 | – | – | – |
| CN(C(=O)[C@H](CC(=O)O)NC(=O)CCCCc1ccc(C(=N)N)cc1)[C@@H](Cc1ccccc1)C(=O)O [N-[N-[5-[4-(aminoiminomethyl)phenyl]-1-oxopentyl]-L-α-aspartyl]-N-methyl-L-phenylalanine] | 1500 | 100 | – | – | – |
